Several values for one entry are separate records, joined by “and”; a condition that tells them apart may be missing. Equal values may be shown once.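 Interpolation was linear, between the two tested concentrations surrounding the appropriate level; five concentrations were tested over 48 hours in 96-well plates. GI50: concentration for 50% inhibition of growth. TGI: total growth inhibition.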
Legend:
Experiment in all cases: inhibition of tumour cell growth, NCI panel, 48 h
HOP-92 NSCLC = test system: HOP-92 NSCLC
SR leukemia = test system: SR leukemia
UO-31 renal = test system: UO-31 renal
RPMI-8226 leukemia = test system: RPMI-8226 leukemia
LOX IMVI melanoma = test system: LOX IMVI melanoma
T-47D breast = test system: T-47D breast
HCT-116 colon = test system: HCT-116 colon
HCC-2998 colon = test system: HCC-2998 colon
HL-60(TB) leukemia = test system: HL-60(TB) leukemia
KM12 colon = test system: KM12 colon

SMILES | GI50 (HOP-92 NSCLC) | TGI (HOP-92 NSCLC) | GI50 (SR leukemia) | TGI (SR leukemia) | GI50 (UO-31 renal) | TGI (UO-31 renal) | GI50 (RPMI-8226 leukemia) | TGI (RPMI-8226 leukemia) | GI50 (LOX IMVI melanoma) | TGI (LOX IMVI melanoma) | GI50 (T-47D breast) | TGI (T-47D breast) | GI50 (HCT-116 colon) | TGI (HCT-116 colon) | GI50 (HCC-2998 colon) | TGI (HCC-2998 colon) | GI50 (HL-60(TB) leukemia) | TGI (HL-60(TB) leukemia) | GI50 (KM12 colon) | TGI (KM12 colon)
COc1cc(CCC[P+](c2ccccc2)(c2ccccc2)c2ccccc2)c(OC)c2c1OCO2 | 1.15 µM | 6.88 µM | 1.1 µM | 13.3 µM | 10.8 µM | 44.1 µM | 0.283 µM | 1.87 µM | 2.48 µM | 12.1 µM | 0.419 µM | 14.7 µM | 0.989 µM | 16.2 µM | 2.21 µM | 13.3 µM | 0.387 µM | 2.35 µM | 0.828 µM | 6.59 µM
CC1=C(C#N)C23C(=O)N(c4ccccc4)C(=O)C2=C(O)C=CC3(O)N1Cc1ccc(Cl)cc1Cl (stereo unspecified) | 3.02 µM | 13.3 µM | 1.85 µM | 4.49 µM | 5.42 µM | 19.6 µM | 1.63 µM | 4.22 µM | 1.59 µM | 2.94 µM | 2.93 µM | 14.6 µM | 1.73 µM | 3.45 µM | 1.81 µM | 3.82 µM | 3.18 µM | 6.82 µM | 3.27 µM | 12 µM
CC(C)(C)OC(=O)NCC(CNC(=O)OC(C)(C)C)C(N)=O | – | > 100 µM | – | > 100 µM | – | > 100 µM | – | > 100 µM | – | > 100 µM | – | > 100 µM | – | > 100 µM | – | > 100 µM | – | > 100 µM | – | > 100 µM
Cc1cc2c(F)c(Oc3ncnc(Nc4ccc(N5C[C@@H](C)N[C@@H](C)C5)cc4)c3C#N)cc(F)c2[nH]1 | 2.07 µM | 8.85 µM | 1.63 µM | 4.35 µM | 1.1 µM | 3.39 µM | 1.72 µM | 4.33 µM | 1.6 µM | 3.08 µM | 1.97 µM | 5.57 µM | 1.69 µM | 3.2 µM | 1.97 µM | 4.14 µM | 1.93 µM | 3.95 µM | 2.55 µM | 7.3 µM
COc1cc(-c2nn(-c3cccc(NC(=O)Nc4ccc(Cl)c(C(F)(F)F)c4)c3)cc2-c2ccncc2)ccc1Cl | 0.499 µM | 1.48 µM | 0.884 µM | 2.48 µM | 0.865 µM | 4.1 µM | 0.868 µM | 3.25 µM | 1.17 µM | 4.61 µM | 1.23 µM | > 32.5 µM | 1.17 µM | 4.56 µM | 1.55 µM | 7.3 µM | 1.17 µM | > 32.5 µM | 1.06 µM | 3.91 µM
O=C1C2CCN(CC2)C1CN1CCOCC1 (stereo unspecified) | – | 3.47 µM | – | 35.5 µM | – | 7.14 µM | – | 13.7 µM | – | 12.1 µM | – | 3.93 µM | – | 3.73 µM | – | 29.2 µM | – | > 100 µM | – | 30.8 µM
NC(=O)c1cc(N2CC2)c([N+](=O)[O-])cc1[N+](=O)[O-] | > 200 µM | > 200 µM | – | > 200 µM | > 200 µM | > 200 µM | > 200 µM | > 200 µM | > 200 µM | > 200 µM | – | > 200 µM | > 200 µM | > 200 µM | > 200 µM | > 200 µM | > 200 µM | > 200 µM | > 200 µM | > 200 µM
O=C(O)Cc1cccc2c(=O)cc(-c3ccccc3)oc12 | 43.9 µM and 318 µM | 178 µM and > 948 µM | – | 250 µM and > 917 µM | 25.5 µM | > 64.4 µM and 174 µM and 334 µM | 388 µM | 250 µM and > 1000 µM | 280 µM | 250 µM and > 909 µM | 690 µM | > 1000 µM | 294 µM | 212 µM and > 868 µM | > 1000 µM | > 1000 µM | 142 µM | > 250 µM and 193 µM | 334 µM | 250 µM and > 889 µM
O=C(O)/C=C/c1ccc(Oc2ccccc2C(=O)O)o1 | – | > 10 µM | – | > 10 µM | – | – | – | > 10 µM | – | > 10 µM | – | > 10 µM | – | > 10 µM | – | > 10 µM | – | > 10 µM | – | > 10 µM
NCCCCC(NC(=O)C(N)CCCN=C(N)N)C(=O)NC(CCCCN)C(=O)NC(CCCN=C(N)N)C(=O)NC(CCCN=C(N)N)C(=O)NC(CCC(N)=O)C(=O)NC(CCCN=C(N)N)C(=O)NC(CCCN=C(N)N)C(=O)NC(CCCN=C(N)N)C(=O)NCC(=O)NCC(=O)O (stereo unspecified) | > 50 µM | > 50 µM | > 50 µM | > 50 µM | > 50 µM | > 50 µM | > 50 µM | > 50 µM | > 50 µM | > 50 µM | > 50 µM | > 50 µM | > 50 µM | > 50 µM | > 50 µM | > 50 µM | > 50 µM | > 50 µM | > 50 µM | > 50 µM
CC1(C)Oc2ccc3ccc(=O)oc3c2C(O)C1O (stereo unspecified) | – | > 100 µM | – | > 100 µM | – | > 100 µM | – | 97.9 µM | – | > 100 µM | – | > 100 µM | – | > 100 µM | – | > 100 µM | – | > 100 µM | – | > 100 µM
COc1ccc(Br)cc1NC(=O)Nc1cccc2c1ccn2Cc1ccnc(N)c1 | 2.18 µM and 1.96 µM | 7.9 µM and 8.55 µM | 2.51 µM and 3.11 µM | 15.5 µM and > 10 µM | 9.78 µM and 3.12 µM | 26.3 µM and > 10 µM | 2.93 µM and 3.54 µM | > 31.6 µM | 1.83 µM and 2.18 µM | 3.66 µM and 5.14 µM | 3.3 µM and 3.9 µM | 18.4 µM and > 10 µM | 5.85 µM and 5.75 µM | 19.5 µM and > 10 µM | 4.41 µM and 4.33 µM | 10.1 µM and > 10 µM | 4.69 µM and 3.6 µM | 20.8 µM and > 10 µM | 2.57 µM and 4.27 µM | 8.23 µM and > 10 µM
C(=N\Nc1ncc(-c2cc3cc4c(cc3o2)OCO4)s1)/c1ccco1 | 1.94 µM | 8.98 µM | 1.29 µM | 25.3 µM | 0.59 µM | 3.68 µM | 3.08 µM | 13.3 µM | 1.35 µM | 2.76 µM | 1.27 µM | 9.74 µM | 1.57 µM | 4.03 µM | 3.52 µM | 12.9 µM | 2.7 µM | 7.59 µM | 1.85 µM | 5.14 µM
Cn1ncc(Cl)c1-c1cc(C(=O)N[C@H](CN)Cc2cccc(F)c2)sc1Cl | 0.338 µM and 0.519 µM | 2.77 µM and 4.21 µM | 0.749 µM and 1.54 µM | 3.11 µM and 4.74 µM | 0.844 µM and 1.51 µM | > 7.4 µM and 12.5 µM | 1.65 µM and 2.06 µM | 5.8 µM and 6.11 µM | 1.08 µM and 2.85 µM | 2.91 µM and 11.3 µM | 0.0272 µM and 0.0492 µM | 1.48 µM | 1.27 µM and 2.84 µM | > 5.17 µM and 13.6 µM | 0.743 µM and 1.54 µM | 2.67 µM and 4.87 µM | > 3.71 µM and 2.48 µM | > 6.27 µM and 8.32 µM | 0.467 µM and 0.835 µM | 3.51 µM and 8.31 µM

Reference: PubChem BioAssay (NCI)
